Source: ChEMBL document CHEMBL5325509, “Pyrrolidinedione-thiazolidinone hybrid molecules with potent cytotoxic effect in squamous cell carcinoma SCC-15 cells” (Bioorg Med Chem, 2023)
Calls of active or inactive are those of the source. The rule behind the calls is not given here.

Legend:
[1] = Upregulation of Caspase-3 activity in human SCC-15 cells at 50 uM measured after 24 hrs in presence of Ac-DEVD-AMC by fluorescence microplate reader analysis; assay type: functional
[2] = Downregulation of PCNA expression in PPARgamma-silenced human SCC-15 cells at 1 uM incubated for 48 hrs Western blot analysis relative to siRNA control; assay type: functional
SCC-15 [3] = test: Cytotoxicity against human SCC-15 cells assessed as decrease in cellular metabolic activity incubated for 48 hrs by resazurin reduction assay; assay type: functional, cell-based; conditions: SCC-15, 48 h
SCC-15 [4] = test: Cytotoxicity against human SCC-15 cells assessed as LDH release at 1 to 100 uM incubated for 24 hrs relative to control; assay type: functional; conditions: dose 1-100 µM
SCC-15 [5] = test: Induction of intracellular ROS generation in human SCC-15 cells at 0.001 to 10 uM incubated for 48 hrs by DCFH-DA staining based immunofluorescence analysis; assay type: functional; conditions: dose 0.001-10 µM
[6] = Downregulation of NRFL2 mRNA expression in PPARgamma-silenced human SCC-15 cells at 1 uM measured after 24 hrs by RT-PCR analysis; assay type: functional
Leukemic tumor cell line = test: Cytotoxicity against human Leukemic tumor cell line assessed as inhibition of cell growth measured at 72 hrs; assay type: functional, cell-based
[7] = Downregulation of AHR mRNA expression in PPARgamma-silenced human SCC-15 cells at 1 uM measured after 24 hrs by RT-PCR analysis; assay type: functional
[8] = Upregulation of AHR expression in PPARgamma-silenced human SCC-15 cells at 1 uM incubated for 48 hrs Western blot analysis relative to control; assay type: functional
[9] = Downregulation of PPARgamma expression in PPARgamma-silenced human SCC-15 cells at 1 uM incubated for 48 hrs Western blot analysis relative to control; assay type: functional
SCC-15 [10] = test: Cytotoxicity against human SCC-15 cells assessed as LDH release incubated for 48 hrs; assay type: functional, cell-based; conditions: SCC-15, 48 h
[11] = Downregulation of Ki67 expression in PPARgamma-silenced human SCC-15 cells at 1 uM incubated for 48 hrs Western blot analysis relative to siRNA control; assay type: functional
[12] = Downregulation of AHR expression in PPARgamma-silenced human SCC-15 cells at 1 uM incubated for 48 hrs Western blot analysis relative to SiRNA control; assay type: functional
[13] = Upregulation of Caspase-3 activity in human SCC-15 cells at 100 uM measured after 24 hrs in presence of Ac-DEVD-AMC by fluorescence microplate reader analysis; assay type: functional
[14] = Cytotoxicity against human Cervical carcinoma cell assessed as inhibition of cell growth measured at 72 hrs; assay type: functional, cell-based
Lung cancer cell line = test: Cytotoxicity against human Lung cancer cell line assessed as inhibition of cell growth measured at 72 hrs; assay type: functional, cell-based
SCC-15 [15] = test: Cytotoxicity against human SCC-15 cells assessed as decrease in cellular metabolic activity incubated for 24 hrs by resazurin reduction assay; assay type: functional, cell-based; conditions: SCC-15, 24 h
[16] = Upregulation of NRFL2 mRNA expression in PPARgamma knockdown human SCC-15 cells at 1 uM measured after 24 hrs by RT-PCR analysis; assay type: functional
Glioblastoma cell line = test: Cytotoxicity against human Glioblastoma cell line assessed as inhibition of cell growth measured at 72 hrs; assay type: functional, cell-based
SCC-15 [17] = test: Induction of intracellular ROS generation in human SCC-15 cells at 50 to 100 uM incubated for 24 hrs by DCFH-DA staining based immunofluorescence analysis; assay type: functional; conditions: dose 50-100 µM
SCC-15 [18] = test: Induction of intracellular ROS generation in human SCC-15 cells at 0.001 to 10 uM incubated for 24 hrs by DCFH-DA staining based immunofluorescence analysis; assay type: functional, cell-based; conditions: dose 0.001-10 µM
SCC-15 [19] = test: Induction of intracellular ROS generation in human SCC-15 cells incubated for 24 to 48 hrs by DCFH-DA staining based immunofluorescence analysis; assay type: functional, cell-based; conditions: dose 0.001-100 µM, time 24-48 hrs
Breast carcinoma cell = test: Cytotoxicity against human Breast carcinoma cell assessed as inhibition of cell growth measured at 72 hrs; assay type: functional, cell-based
SCC-15 [20] = test: Induction of intracellular ROS generation in human SCC-15 cells at 10 to 100 uM incubated for 48 hrs by DCFH-DA staining based immunofluorescence analysis; assay type: functional; conditions: dose 10-100 µM
SCC-15 [21] = test: Induction of intracellular ROS generation in human SCC-15 cells at 0.001 to 100 uM by DCFH-DA staining based immunofluorescence analysis; assay type: functional, cell-based; conditions: dose 0.001-100 µM, time 24-48 hrs, TDE = time-dependent effect
SCC-15 [22] = test: Cytotoxicity against human SCC-15 cells assessed as decrease in cellular metabolic activity at 10 to 100 uM incubated for 48 hrs by resazurin reduction assay relative to control; assay type: functional; design: scale not given: the % may be the effect or the level left; conditions: dose 10-100 µM
[23] = Upregulation of Caspase-3 activity in human SCC-15 cells at 100 uM measured after 48 hrs in presence of Ac-DEVD-AMC by fluorescence microplate reader analysis; assay type: functional
[24] = Downregulation of PPARgamma mRNA expression in PPARgamma-silenced human SCC-15 cells at 1 uM measured after 24 hrs by RT-PCR analysis; assay type: functional
Colon carcinoma cell = test: Cytotoxicity against human Colon carcinoma cell assessed as inhibition of cell growth measured at 72 hrs; assay type: functional, cell-based
[25] = Downregulation of Ki67 expression in PPARgamma-silenced human SCC-15 cells at 1 uM incubated for 48 hrs Western blot analysis relative to control; assay type: functional
[26] = Upregulation of PPARgamma expression in PPARgamma-silenced human SCC-15 cells at 1 uM incubated for 48 hrs Western blot analysis relative to SiRNA control; assay type: functional
[27] = Cytotoxicity against human HaCaT cells assessed reduction in cellular metabolic activity incubated for 24 to 72 hrs by MTT assay; assay type: toxicity, cell-based
[28] = Cytotoxicity against mouse BALB/3T3 cells assessed reduction in cellular metabolic activity incubated for 24 to 72 hrs by MTT assay; assay type: toxicity, cell-based
HaCaT = test: Cytotoxicity against human HaCaT cells assessed reduction in cellular metabolic activity at 0.1 to 100 uM incubated for 24 to 72 hrs by MTT assay; assay type: toxicity, cell-based; conditions: dose lower 0.1 µM, time lower 24 hrs, dose upper 100 µM, time upper 72 hrs
[29] = Upregulation of PPARgamma expression in PPARgamma-silenced human SCC-15 cells at 1 uM incubated for 48 hrs Western blot analysis relative to control; assay type: functional
SCC-15 [30] = test: Cytotoxicity against human SCC-15 cells assessed as decrease in cellular metabolic activity at 100 uM incubated for 24 hrs by resazurin reduction assay relative to control; assay type: functional; design: scale not given: the % may be the effect or the level left
BALB/3T3 = test: Cytotoxicity against mouse BALB/3T3 cells assessed reduction in cellular metabolic activity at 0.1 to 100 uM incubated for 24 to 72 hrs by MTT assay; assay type: toxicity, cell-based; conditions: balb/3t3, 100 µM, dose lower 0.1 µM, time lower 24 hrs, dose upper 100 µM, time upper 72 hrs
SCC-15 [31] = test: Cytotoxicity against human SCC-15 cells assessed as LDH release incubated for 24 hrs; assay type: functional, cell-based; conditions: SCC-15, 24 h
SCC-15 [32] = test: Cytotoxicity against human SCC-15 cells assessed as LDH release at 1 to 100 uM incubated for 48 hrs relative to control; assay type: functional; conditions: dose 1-100 µM
[33] = Downregulation of NRFL2 mRNA expression in human SCC-15 cells at 1 uM measured after 24 hrs by RT-PCR analysis (reference value: 18.36 %); assay type: functional
[34] = Cytotoxicity against human HaCaT cells assessed reduction in cellular metabolic activity incubated for 72 hrs by MTT assay; assay type: toxicity, cell-based
SCC-15 [35] = test: Cytotoxicity against human SCC-15 cells assessed as LDH release at 10 uM incubated for 48 hrs relative to control; assay type: functional
[36] = Downregulation of AHR mRNA expression in human SCC-15 cells at 1 uM measured after 24 hrs by RT-PCR analysis (reference value: 17.30 %); assay type: functional
[37] = Downregulation of PPARgamma expression in PPARgamma-silenced human SCC-15 cells at 1 uM incubated for 48 hrs Western blot analysis relative to SiRNA control; assay type: functional
SCC-15 [38] = test: Cytotoxicity against human SCC-15 cells assessed as LDH release at 50 uM incubated for 48 hrs relative to control; assay type: functional
[39] = Cytotoxicity against mouse BALB/3T3 cells assessed reduction in cellular metabolic activity incubated for 72 hrs by MTT assay; assay type: toxicity, cell-based
SCC-15 [40] = test: Cytotoxicity against human SCC-15 cells assessed as LDH release at 1 uM incubated for 48 hrs relative to control; assay type: functional
SCC-15 [41] = test: Induction of intracellular ROS generation in human SCC-15 cells at 50 to 100 uM incubated for 48 hrs by DCFH-DA staining based immunofluorescence analysis; assay type: functional; conditions: dose 50-100 µM
SCC-15 [42] = test: Induction of intracellular ROS generation in human SCC-15 cells at 0.001 to 1 uM incubated for 24 to 48 hrs by DCFH-DA staining based immunofluorescence analysis; assay type: functional, cell-based; conditions: dose 0.001-1 µM, time 24-48 hrs
[43] = Upregulation of Caspase-3 activity in human SCC-15 cells at 50 uM measured after 48 hrs in presence of Ac-DEVD-AMC by fluorescence microplate reader analysis; assay type: functional
SCC-15 [44] = test: Cytotoxicity against human SCC-15 cells assessed as LDH release at 100 uM incubated for 48 hrs relative to control; assay type: functional
[45] = Downregulation of PCNA expression in PPARgamma-silenced human SCC-15 cells at 1 uM incubated for 48 hrs Western blot analysis relative to control; assay type: functional
[46] = Downregulation of PPARgamma mRNA expression in human SCC-15 cells at 1 uM measured after 24 hrs by RT-PCR analysis (reference value: 79.68 %); assay type: functional
SCC-15 [47] = test: Cytotoxicity against human SCC-15 cells assessed as LDH release at 50 nM incubated for 48 hrs relative to control; assay type: functional

O=C1CC(N2C(=O)/C(=C/C(Cl)=C/c3ccc([N+](=O)[O-])cc3)SC2=S)C(=O)N1c1ccc(Cl)cc1 (centres undefined)
Activity [1]: 29.03% | Activity [2]: 34.64% | IC50 (SCC-15 [3]): 30.4 µM | Activity (SCC-15 [4]): 2% | Activity (SCC-15 [5]): 15.81% | Activity [6]: 30.64% | IC50 (Leukemic tumor cell line): 1 µM | Activity [7]: 9.11% | Activity [8]: 17.79% | Activity [9]: 46.82% | EC50 (SCC-15 [10]): 10.2 µM | Activity [11]: 44.91% | Activity [12]: 32.59% | Activity [13]: 135.01% | IC50 [14]: 1 µM | IC50 (Lung cancer cell line): 1 µM | IC50 (SCC-15 [15]): > 100 µM | Activity [16]: 12.9% | IC50 (Glioblastoma cell line): 1 µM | Activity (SCC-15 [17]): 18.64% | Activity (SCC-15 [18]): inactive | Activity (SCC-15 [19]): Dose-Dependent Effect | IC50 (Breast carcinoma cell): 1 µM | Activity (SCC-15 [20]): 13.13% | Activity (SCC-15 [21]): Tde | Activity (SCC-15 [22]): 31.6% | Activity [23]: 55.58% | Activity [24]: 82.31% | IC50 (Colon carcinoma cell): 1 µM | Activity [25]: 42.01% | Activity [26]: 26.46% | IC50 [27]: > 100 µM | IC50 [28]: > 100 µM | Activity (HaCaT): Non-Toxic | Activity [29]: 23.81% | Activity (SCC-15 [30]): 34.08% | Activity (BALB/3T3): Non-Toxic | EC50 (SCC-15 [31]): 14.8 µM | Activity (SCC-15 [32]): 49.3%

O=C1CC(N2C(=O)/C(=C/C(Cl)=C/c3ccc([N+](=O)[O-])cc3)SC2=S)C(=O)N1c1ccc(Br)cc1 (centres undefined)
Activity [1]: 42.87% | Activity [2]: 24.94% | Activity [33]: 8.55% | IC50 (SCC-15 [3]): 39.9 µM | Activity [6]: 26.91% | Activity [7]: 10.4% | IC50 at 72 h [34]: 83.6 µM | Activity (SCC-15 [35]): 30% | Activity [36]: 11.84% | Activity [9]: 14.43% | EC50 (SCC-15 [10]): 16.9 µM | Activity [11]: 39.67% | Activity [12]: 32.23% | Activity [37]: 18.45% | Activity [13]: 121.15% | Activity (SCC-15 [38]): 178.4% | IC50 at 72 h [39]: 85.2 µM | Activity (SCC-15 [40]): 1.2% | Activity (SCC-15 [41]): 12% | Activity (SCC-15 [42]): inactive | IC50 (SCC-15 [15]): > 100 µM | Activity [43]: 21.08% | Activity [16]: 17.1% | Activity (SCC-15 [19]): Dose-Dependent Effect | Activity (SCC-15 [44]): 328% | Activity [45]: 12.74% | Activity (SCC-15 [21]): Tde | Activity (SCC-15 [22]): 24.52% | Activity [46]: 12.29% | Activity [23]: 57.04% | Activity [24]: 73.1% | Activity [25]: 17% | Activity (SCC-15 [47]): 2% | IC50 [27]: > 100 µM | IC50 [28]: > 100 µM | Activity (HaCaT): Non-Toxic | Activity [29]: 11.23% | Activity (SCC-15 [30]): 27.07% | Activity (BALB/3T3): Non-Toxic | EC50 (SCC-15 [31]): 15.4 µM
